The results in this text go back to patent US20260176260A1, “DUAL RAF AND TUBULIN INHIBITORS AND METHODS OF USE THEREOF” (Deciphera Pharmaceuticals, LLC, priority 2023, published 2026).

One assay addresses T1, C-Raf kinase (Homo sapiens, UniProt P04049, Y340D/Y341D).
T1 construct: C-Raf residues 306-end; Y340D, Y341D with N-; purchased Sigma
The assay can be described thus: Biochemical assay for C-Raf (coupled pyruvate kinase/lactate dehydrogenase).

For another assay, the system named is HPAF-II cells. The assay can be described thus: HPAF-II cell proliferation assay (resazurin). Format: cell-based. An outline of the steps: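 Serial compound dilutions in triplicate with 750 cells/well in complete MEM with 10% FBS, 115 to 120 h at 37° C, 5% CO2. Resazurin then added for 18 to 24 h; fluorescence at ex 540/em 600 nm used to derive IC50.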
On the technique in general: The colour change of resazurin is a common sign of viable cells or microbes.

The subject of the next assay is HCT-116 cells. In words: HCT-116 cell proliferation assay (resazurin). The format is cell-based. In short, it runs like this: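 HCT-116 cells, 375 per well in McCoy's 5A with 10% FBS, exposed to serially diluted compound in triplicate for 67-72 h at 37 °C. Resazurin added for 4-5 h more; fluorescence (ex 540/em 600 nm) fitted to IC50.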
The target in the next assay is T2, Porcine Brain Tubulin (Sus scrofa, UniProt P02550+P02554).
T2 construct: Porcine Brain Tubulin (T240); purchased Cytoskeleton, Inc T240; BK011P; host or cells: porcine brain
T2 sequence (P02550 whole entry): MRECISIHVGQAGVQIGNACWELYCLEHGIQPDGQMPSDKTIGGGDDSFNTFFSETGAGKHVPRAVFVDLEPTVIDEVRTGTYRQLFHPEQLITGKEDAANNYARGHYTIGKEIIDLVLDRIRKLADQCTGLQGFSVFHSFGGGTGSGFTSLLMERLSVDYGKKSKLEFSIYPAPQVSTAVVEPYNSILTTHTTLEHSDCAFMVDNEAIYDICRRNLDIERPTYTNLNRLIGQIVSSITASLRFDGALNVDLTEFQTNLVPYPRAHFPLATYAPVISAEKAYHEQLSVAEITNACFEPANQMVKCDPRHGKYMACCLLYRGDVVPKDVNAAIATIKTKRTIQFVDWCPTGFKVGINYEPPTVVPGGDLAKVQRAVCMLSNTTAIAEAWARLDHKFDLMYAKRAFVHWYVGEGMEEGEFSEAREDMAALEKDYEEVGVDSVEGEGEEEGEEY
T2 sequence (P02554 whole entry): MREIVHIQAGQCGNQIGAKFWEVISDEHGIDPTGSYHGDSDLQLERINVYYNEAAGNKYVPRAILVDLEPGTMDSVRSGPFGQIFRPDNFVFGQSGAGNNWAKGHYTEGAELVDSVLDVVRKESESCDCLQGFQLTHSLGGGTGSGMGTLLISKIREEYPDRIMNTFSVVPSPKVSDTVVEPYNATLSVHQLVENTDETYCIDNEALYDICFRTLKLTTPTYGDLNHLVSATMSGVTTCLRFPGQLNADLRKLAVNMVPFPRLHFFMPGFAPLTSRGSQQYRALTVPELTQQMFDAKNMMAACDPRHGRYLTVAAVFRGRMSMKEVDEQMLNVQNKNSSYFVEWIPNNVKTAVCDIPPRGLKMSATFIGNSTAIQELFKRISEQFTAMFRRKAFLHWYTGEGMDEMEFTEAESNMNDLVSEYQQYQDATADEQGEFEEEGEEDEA
In words: Biochemical tubulin polymerization assay.

The next assay concerns MiaPaca-2 cells. In words: MiaPaca-2 cell proliferation assay (resazurin). The format is cell-based.
For assay [1], the system named is tubulin polymerization in HCT-116 cells. The assay can be described thus: Cellular tubulin polymerization assay (pellet/supernatant a-tubulin, HCT-116 cells). The format is cell-based. As for the experimental part:
HCT-116 cells (catalog #CCL-247) are obtained from the American Type Culture Collect (ATCC, Manassas, VA). Briefly, cells are grown in McCoy's 5A supplemented with 10% characterized fetal bovine serum (Invitrogen, Carlsbad, CA) and 1% Penicillin/Streptomycin/L-Glutamine at 37° C., 5% CO2, and 95% humidity. Cells are expanded until reaching 70-95% confluency at which point they are sub-cultured or harvested for assay use. 450000 cells are added per well in 1500 μL complete growth medium in a tissue culture treated, 12-well plate. Plates are incubated for 18 to 24 h at 37° C., 5% CO2, and 95% humidity. At the end of the incubation, 2000 μL of base culture media is added to each well, followed by a serial dilution of compound. Plates are incubated for an additional 1 h at 37° C., 5% CO2, and 95% humidity. Lysates are generated by the addition of 100 μL Lysis and Microtubule Stabilization Buffer 1 (LMS01, Cytoskeleton Inc, Denver, CO) supplemented with GTP (BST06, Cytoskeleton Inc), ATP (BSA04, Cytoskeleton Inc), and Protease Inhibitor Cocktail Stock (PIC02, Cytoskeleton Inc). Cells are scraped off wells using a rubber cell scraper and collected in a clean 96-well plate. Lysates are centrifuged at 1000×g, 37° C. for 10 min and supernatant fraction is placed into an additional 96-well plate. The remaining pellet fraction is reconstituted in 100 μL LMS01 buffer and sonicated for 10 min. Pellet and Supernatant fractions are probed for a-tubulin via western blot analysis on the Jess System or equivalent (Bio-techne, Minneapolis, MN). Data is analyzed using Prism software (Graphpad, San Diego, CA) to calculate IC50 values.

The target of a further assay is T3, B-Raf kinase (Homo sapiens, UniProt P15056).
T3 construct: purchased Sigma
T3 sequence (P15056 416-766): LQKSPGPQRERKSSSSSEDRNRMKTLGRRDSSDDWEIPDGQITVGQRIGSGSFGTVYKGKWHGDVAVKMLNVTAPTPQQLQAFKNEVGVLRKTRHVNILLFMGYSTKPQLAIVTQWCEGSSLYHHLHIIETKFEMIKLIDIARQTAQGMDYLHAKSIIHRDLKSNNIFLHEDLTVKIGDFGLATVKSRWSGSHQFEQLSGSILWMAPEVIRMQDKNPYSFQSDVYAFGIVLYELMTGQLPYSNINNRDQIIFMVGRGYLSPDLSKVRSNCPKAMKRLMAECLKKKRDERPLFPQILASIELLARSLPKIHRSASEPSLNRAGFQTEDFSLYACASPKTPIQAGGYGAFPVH
The assay can be described thus: Biochemical assay for B-Raf (coupled pyruvate kinase/lactate dehydrogenase).

The mark [2] stands for this setting: Homo sapiens, HPAF-II, Table 4, read-out: HPAF-II IC50.
The mark [3] stands for this setting: Homo sapiens, HCT-116, Table 4, read-out: HCT-116 IC50.
Setting [4] is: Table 4, read-out: Tubulin Biochem IC50.
The mark [5] stands for this setting: Homo sapiens, Table 5, read-out: HPAF-II.
Setting [6] is: Homo sapiens, Table 5, read-out: HCT-116.
The mark [7] stands for this setting: Homo sapiens, MIA PaCa-2, Table 5, read-out: MiaPaca-2.
Setting [8] is: Table 5, read-out: Tubulin Biochem.
[9] abbreviates: Table 5, HCT-116 cells, read-out: Tubulin Cellular.

Like-named read-outs stand apart in the source and are kept apart here.

For `CNC(=O)c1cc(-c2cc(-c3cc(NC(=O)c4ccnc(C(C)(C)C#N)c4)c(F)cc3C)ccn2)ccn1` [reference compound], the IC50 is less than 100 nM at C-Raf kinase (Table 4, read-out: CRAF IC50); 1000 to 10000 nM in the assay with HPAF-II cells (setting [2]); 500 to 1000 nM in the assay with HCT-116 cells (setting [3]); more than 100000 nM at Porcine Brain Tubulin (setting [4]).
Consider `CC(C)(C)c1nc(-c2cccc(NS(=O)(=O)c3c(F)cccc3F)c2F)c(-c2ccnc(N)n2)s1` [Dabrafenib, reference compound], for which the IC50 in the assay with HPAF-II cells (setting [5]) was 1000 to 10000 nM; with HCT-116 cells (setting [6]), 1000 to 10000 nM; in the assay with MiaPaca-2 cells (setting [7]), 1000 to 10000 nM; on Porcine Brain Tubulin (setting [8]), more than 100000 nM.
With Belvarafenib [reference compound], the IC50 on C-Raf kinase (Table 5, read-out: CRAF) is less than 100 nM; with HPAF-II cells (Table 5, read-out: HPAF-II), 1000 to 10000 nM; with HCT-116 cells (Table 5, read-out: HCT-116), 500 to 1000 nM; in the assay on MiaPaca-2 cells (Table 5, read-out: MiaPaca-2) it was 1000 to 10000 nM; in assay [1] (setting [9]), 1000 to 10000 nM; at Porcine Brain Tubulin (setting [8]) it was more than 100000 nM. For the same compound, the IC50 on B-Raf kinase (Table 5, read-out: BRAF) is less than 100 nM.
For `Cc1ccc(NC(=O)N2CC[C@@H](CC(F)(F)F)C2)cc1-c1cc(N[C@H](C)CO)nc(N2CCOCC2)c1` [Exarafenib, reference compound], the IC50 in the assay on HPAF-II cells (setting [5]) is 1000 to 10000 nM; in the assay with HCT-116 cells (setting [6]), 500 to 1000 nM; in the assay on MiaPaca-2 cells (setting [7]), 1000 to 10000 nM; in assay [1] (setting [9]), 1000 to 10000 nM.
Consider `Cc1cc(-c2cc(NC(=O)c3ccnc(C(C)(C)F)c3)ccc2C)cc(-c2ccnc(C(N)=O)c2)n1` [reference compound], for which the IC50 on C-Raf kinase (Table 4, read-out: CRAF IC50) was less than 100 nM; in the assay with HPAF-II cells (setting [2]) it was 1000 to 10000 nM; in the assay with HCT-116 cells (setting [3]), 1000 to 10000 nM; at Porcine Brain Tubulin (setting [4]), more than 100000 nM; on B-Raf kinase (Table 4, read-out: BRAF IC50), less than 100 nM.
`CCCS(=O)(=O)Nc1ccc(F)c(C(=O)c2c[nH]c3ncc(-c4ccc(Cl)cc4)cc23)c1F` [Vemurafenib, reference compound]: the IC50 in the assay on HPAF-II cells (setting [5]) is 1000 to 10000 nM; in the assay on HCT-116 cells (setting [6]), 1000 to 10000 nM; in the assay on MiaPaca-2 cells (setting [7]), 1000 to 10000 nM; at Porcine Brain Tubulin (setting [8]) it was more than 100000 nM.
With `Cc1ccc(NC(=O)c2ccnc(C(F)(F)F)c2)cc1-c1cc(OCCO)nc(N2CCOCC2)c1` [Naporafenib, reference compound], the IC50 on C-Raf kinase (Table 5, read-out: CRAF) is less than 100 nM; with HPAF-II cells (setting [5]), 1000 to 10000 nM; in the assay on HCT-116 cells (setting [6]) it was 1000 to 10000 nM; in the assay on MiaPaca-2 cells (setting [7]), 1000 to 10000 nM; at Porcine Brain Tubulin (setting [8]), more than 100000 nM; at B-Raf kinase (Table 5, read-out: BRAF), less than 100 nM.
Consider `C[C@@H](NC(=O)c1ncnc(N)c1Cl)c1ncc(C(=O)Nc2cc(C(F)(F)F)c(Cl)cn2)s1` [Tovorafenib, reference compound], for which the IC50 in the assay on HPAF-II cells (setting [5]) is 1000 to 10000 nM; in the assay on HCT-116 cells (setting [6]), 1000 to 10000 nM; with MiaPaca-2 cells (setting [7]), 1000 to 10000 nM; in assay [1] (setting [9]), 1000 to 10000 nM; on Porcine Brain Tubulin (setting [8]), more than 100000 nM.
Consider `CNC(=O)c1cc(-c2cc(-c3cc(NC(=O)c4ccnc(C(C)(C)F)c4)ccc3C)ccn2)ccn1` [reference compound], for which the IC50 at C-Raf kinase (Table 4, read-out: CRAF IC50) was less than 100 nM; in the assay on HPAF-II cells (setting [2]), 1000 to 10000 nM; with HCT-116 cells (setting [3]), 500 to 1000 nM; in assay [1] (Table 4, HCT-116 cells, read-out: Tubulin Cellular IC50), 1000 to 10000 nM; on Porcine Brain Tubulin (setting [4]), more than 100000 nM; at B-Raf kinase (Table 4, read-out: BRAF IC50), less than 100 nM.
Consider `CNC(=O)c1cc(-c2cc(-c3cc(NC(=O)c4cnnc(C(F)(F)F)c4)ccc3C)ccn2)ccn1` [reference compound], for which the IC50 at C-Raf kinase (Table 4, read-out: CRAF IC50) was less than 100 nM; in the assay on HPAF-II cells (setting [2]) it was 1000 to 10000 nM; in the assay on HCT-116 cells (setting [3]), 1000 to 10000 nM; in the assay with MiaPaca-2 cells (Homo sapiens, MIA PaCa-2, Table 4, read-out: MiaPaca-2 IC50), 1000 to 10000 nM; at Porcine Brain Tubulin (setting [4]), more than 100000 nM; at B-Raf kinase (Table 4, read-out: BRAF IC50), less than 100 nM.
For `CC(C)(C)c1[nH]cnc1/C=c1\[nH]c(=O)/c(=C/c2ccccc2)[nH]c1=O` [plinabulin, reference compound], in assay [1] (ratio of pellet to supernatant vs DMSO control, HCT-116 cells, read-out: IC50 of inhibition of tubulin polymerization, cellular tubulin assay (FIG. 2)), the IC50 amounted to 5 nM.
